# Key:
# H460 = experiment: 3D cell proliferation assay (soft agar), H460; assay type: cell-based, human; conditions: Homo sapiens, NCI-H460, 3D soft agar
# Experimental: Drug nsl-8 was further subjected to a 3D cell proliferation assay for assessing its potential in inhibiting the growth of NSCLC tumors. The same four NSCLC cell lines used in 2D proliferation assays were grown in soft agar and the drug was added after the agar has solidified. The drug added cells were then incubated several days until colonies have formed in the solvent control. Subsequently, Alamar Blue which was a cell viability reagent was added and the corresponding fluorescence released was measured as an indirect quantification of colony growth in soft agar.
# For each cell line, some 96 well culture plates were prepared. 100 μL of the soft agar bottom layer (0.6% final concentration in complete medium) was poured and left to solidify. 50 μL of the soft agar top layer (0.4% final concentration) containing the corresponding cells and cell number were then added on top, solidified and such 96 well plates were incubated overnight at 37° C. in 10% CO2. Next day, drugs were added at indicated final concentrations into the inner wells of the plate. Subsequently, the assays were incubated in cell culture incubators for the indicated period of time. Finally, the assays were developed using Alamar Blue and upon 3-5 h of incubation at 37 ° C. fluorescence intensity was determined (excitation: 560 nm, emission: 590 nm). […]
# A549 implanted tumors = experiment: Subcutaneous A549 xenograft model, groups 1a/1b, i.p.; assay type: in vivo, BALB/c nude mice; conditions: 40 mg/kg i.p. once daily, after treatment days 48-52
# Experimental: All experiments were performed using either 5-6 weeks old female BALB/c nude mice (approximate weight: 16-20 g) (A549) or female SCID mice (approximate weight: 16-20 g) (A549 and HCC827). […] Animal behaviour was monitored daily.
# At necropsy, animals were killed by cervical dislocation. Primary tumor weights and volumes were determined.
# The treatment for groups 1a and 1b (A549 model) animals with drug nsl-8 was started on day 48 and terminated on day 69. The animals were not consecutively treated with nsl-8 during the entire treatment period of 48-68 days. Instead, there was an interruption between treatment days 48-52 and 62-66 (FIG. 4) due to an apparent weight loss observed in the treated animals, an ethical reason which caused the treatment to be suspended. […] However, the animals were able to recover from such a weight loss after several days of cessation of treatment (FIG. 5). After weight loss of treated animals was recovered, a second treatment cycle from days 62-66 was resumed (FIG. 5). This second treatment cycle caused weight loss again (FIG. 5). However, the study groups 1a and 1b were both terminated on day 69 due to the presence of tumor ulceration in some animals. Note that weight loss in animals treated with vehicle was also observed in the final stage of treatment (FIG. 5). We speculated that such a loss might be caused by the presence of 10% DMSO in the prepared vehicle. […]
# HCC827 implanted tumors = experiment: Subcutaneous HCC827 xenograft model, groups 3a-3c, o.p.; conditions: for Tumor inhibition rate (%): HCC827, o.p. once daily, NSL-8 70 mpk, Tarceva 20 mpk
# Experimental: The antitumor efficacy of the drug lead nsl-8 searched was studied using the subcutaneous xenografted A549 and HCC827 lung cancer tumor models in vivo. […] Mice were maintained in individual ventilated cages (IVC, max. 4 mice/cage) at constant temperature and humidity. Animal weights were determined three times (Monday, Wednesday and Friday) for groups 1a and 1b or two times (Monday and Thursday) for groups 2a-2c and 3a-3c animals. Animal behaviour was monitored daily.
# On day 0, either 2×10^6 A549 or 2×10^6 HCC827 tumor cells in 100 μL PBS were implanted into the subcutaneous space of the left flank of all corresponding BALB/c nude and SCID mice, respectively. In the following, tumor sizes were determined by caliper measurement. Tumor sizes were calculated according to the formula W^2×Lg/2 (Lg=length and W=the perpendicular width of the tumor, L>W). On day 48 or 30, after mean tumor volumes had reached approx. 100 mm^3, the corresponding tumor-bearing animals were randomized into 2 groups of 8 (A549 model: groups 1a and 1b) or 10 animals (A549 model: groups 2a and 2b) according to tumor sizes. On day 24 or 28, after mean tumor volumes had reached approx. 100 mm^3, the corresponding tumor-bearing animals were randomized into 2 groups of 10 animals (HCC827 model: groups 3a and 3b) according to tumor sizes. […] The percentage of tumor growth inhibition (TGI) was calculated using the following formula: […]
# where T and C represent the mean tumor volume of the treatment and the control group, respectively.
# The solution was aliquoted into several 15 ml sterile centrifuge tubes in 650 μl quantity per tube and then stored frozen at −80° C. until use. […] Animals of group 1b received 40 mg/kg nsl-8 dosage solution once daily through i.p. route on days 48-52 and 62-66, while those of groups 2b and 3b received 70 mg/kg nsl-8 dosage solution once daily through o.p. route on days 1-14 (group 2b) and days 1-14 (group 3b), respectively (Table 4).
# Groups 1a and 1b (A549 model) were terminated on day 69, while groups 2a-2c (A549 model) and 3a-3c (HCC827 model) were terminated on day 15. At necropsy, animals were killed by cervical dislocation. Primary tumor weights and volumes were determined. The tumor volume and weight were analysed using descriptive data analysis (Mean, SEM, Median). Statistical analysis of efficacy data was performed using the unpaired t-test. All the data analyses were performed using GraphPad Prism 5 from GraphPad Software, Inc., San Diego, USA.
# The serum level of blood urea nitrogen (BUN) was measured for assessing the renal function while those of alanine aminotransferase (ALT) and aspartate aminotransferase (AST) were measured using Ektachem DT system (Johnson & Johnson Clinical Diagnostics) for assessing the liver function. The EDTA treated anticoagulated blood samples were also collected for making a complete peripheral blood count by using a Hematology Analyzer (Sysmex, XT-1800i).
# For this study, 0.161 ml nsl-8 stock solution made in DMSO was mixed with 1.339 ml 0.9% w/v saline so that the volume of a final dosage solution prepared to feed an animal was 1.5 ml and containing 10% DMSO. Therefore, both administration routes and vehicles used in treating groups 2a-2b and 3a-3b animals were quite different from that used in treating groups 1a-1b animals.
compound,measurement,setting,value
"COc1ccc(-c2ccc3cc(C(=O)O)ccc3c2)cc1C12CC3CC(CC(C3)C1)C2 [nsl-8, 6-[3-(1-adamantyl)-4-methoxyphenyl]-2-naphthalenecarboxylic acid]",IC50,H460,4.9 µM
same,weight loss in animals,A549 implanted tumors,16%
same,Tumor inhibition rate (%),HCC827 implanted tumors; Day 0,0%
same,Tumor inhibition rate (%),HCC827 implanted tumors; Day 3,16.6%
same,Tumor inhibition rate (%),HCC827 implanted tumors; Day 7,13.8%
same,Tumor inhibition rate (%),HCC827 implanted tumors; Day 10,22.4%
same,Tumor inhibition rate (%),HCC827 implanted tumors; Day 14,28.7%
same,counts of neutrophils and lymphocytes,"HCC827 implanted tumors; mouse, in vivo",increase
same,counts of red blood cells,"HCC827 implanted tumors; mouse, in vivo",decrease
same,"serum levels of BUN, ALT, and AST among treatment groups","HCC827 implanted tumors; mouse, in vivo",no significant difference
same,total white blood cells and platelets counted versus vehicle,"HCC827 implanted tumors; mouse, in vivo",no significant difference

# Source: patent US20160113895A1, “Novel Use of Adapalene in Treating Esophageal Cancer and Gastrointestinal Stromal Tumor” (Biodelight Biotech Inc., priority 2013, published 2016)
